The test system of one data set is Yucatan minipigs. Description: 3-month pre-clinical evaluation (QCA stenosis). It counts as in vivo. The conditions noted are these: 3 months, not statistically significant (p=0.15). From the text:
After 3 months a trend in favour of the treatment groups was found, with an indication of a dose-response relationship shown in FIG. 5. The stenosis was reduced by 20% and 34% in the low and high dose groups respectively compared to the control.

In the next data set the test system is farm swine. Description: One-month pre-clinical assessment (QCA, histomorphometry, histology). The note with it: low dose 0.30 μg per mm^2 of stent, 1 month, control 4.0. It is filed as in vivo. The text has this:
A total of 24 stents were implanted in 12 farm swine pigs for 1 month. […] The higher dose was set at the maximum quantity that could be loaded onto the stent.

Data set [1] has as its system coronary arteries of farm swine. The experiment in a line: Re-endothelialisation of batimastat-loaded BiodivYsio stents (SEM). The conditions noted are these: 5 days. It counts as in vivo. The text has this: BiodivYsio stents (control, low dose batimastat and high dose batimastat) were implanted into healthy farm swine. After 5 days the animals were sacrificed and the stents studied for endothelialisation using scanning electron microscopy.
The stents were implanted into the coronary arteries of farm swine (2 per animal, each in different arteries). After sacrifice, the vessels were excised and trimmed of all extraneous tissue, washed in buffer, and fixed in 2.5% glutaraldehyde at pH 7.4. Fixation was carried out for a minimum of 24-48 hours in 2.5% glutaraldehyde. The section of artery was rinsed in 0.1M cacodylate buffer pH 7.4. The arteries were shipped in 0.1M cacodylate buffer pH 7. The vessels were required to be left whole, i.e. without longitudinal transection. A small V was marked in the proximal end of the vessel to determine vessel orientation. SEM analysis was carried out on three sections of the stented artery and at 2 different magnifications (high and low). The analysis concentrated on the rate and extent of re-endothelisation of the stent struts and the presence of any cellular/biological debris within the stented segment of artery.

Data set [2] in a line: Batimastat elution from stents in PBS, non flow system. It counts as physicochemical. The conditions noted are these: coated stents loaded from methanol, after 1 hour, based on total amount loaded. As for the experimental part:
Elution studies were carried out at 25° C. for up to 1 hour in gently agitated PBS. […] At various time intervals a I ml aliquot was removed and replaced with 1 ml fresh PBS. The stents and water aliquots were measured, see section 1.1.4, to give the amount of drug eluted and the amount of drug remaining on the stents, see section 1.2.1 for results. Samples of eluent from elution studies were injected directly into the system. The sensitivity of the method was 0.010 ppm (0.010 μg/ml).

Data set [3] can be described thus: Pharmacokinetic study, 14C batimastat-loaded BiodivYsio stents in iliac arteries. It is filed as in vivo, New Zealand white rabbit. The conditions noted are these: rabbit iliac arteries, 28 days post-implantation. From the text:
The pharmacokinetic studies were initiated to investigate the deposition of drug from the batimastat-loaded BiodivYsio stent.

A short description of data set [4]: Solubility of batimastat in ethanol (100%). It counts as physicochemical. From the text:
This was by preparation of a series of solutions outlined in Table 1

For data set [5] the following is noted: P is the partition coefficient; cited from earlier work.

As for `CNC(=O)[C@H](Cc1ccccc1)NC(=O)[C@H](CC(C)C)[C@H](CSc1cccs1)C(=O)NO` (relative stereo) [batimastat, (2R-(1(S*),2R*,3S*))—N4-hydroxy-N1-(2-(methylamino)-2-oxo-1-(phenylmethypethyl)-2-(2-methylpropyl)-3-((thienylthio)methyl)butanediamide], the figures for the “Reduction of stenosis compared to the control (QCA)” value in the data set on Yucatan minipigs (high dose 0.30±0.13 μg per mm^2 of stent) and in the data set on Yucatan minipigs (low dose 0.03±0.01 μg per mm^2 of stent) were 34% and 20%, respectively. The molecule also gave an Intimal area with farm swine of 2.5. In addition, the “Effect on endothelialisation process in-vivo” value in data set [1] (high dose 115.3±16.1 μg per 15 mm stent) and in data set [1] (low dose 34.2±1.6 μg per 15 mm stent) was “did not affect the endothelialisation process” throughout. Moreover, the “Batimastat remaining on the stents” value in data set [2] came out at 44%. Besides, the “Loaded drug eluted from stent” value in data set [3] is given as approximately 95%. The Solubility result in data set [4] (1.05 mg per ml batimastat in ethanol (100%)) is on record as “clear suspension”; in data set [4] (1.13 mg per ml batimastat in ethanol (100%)) it was “fine suspension”; in data set [4] (2.6 mg per ml batimastat in ethanol (100%)), “white suspension”.

For orientation: log P means the decadic logarithm of the partition coefficient of the neutral form, usually between octanol and water. Regarding `C[C@@H]1C[C@H]2[C@@H]3CCC4=CC(=O)C=C[C@]4(C)[C@@]3(F)[C@@H](O)C[C@]2(C)[C@@]1(O)C(=O)CO` [dexamethasone], in data set [5], the “log P” value was 2.55.

These data come from patent US8465758B2, “Drug delivery from stents” (Abbott Laboratories, priority 2001, dated 2013).
